Measured values taken from PMC11995238, “Discovery of Highly Potent BET Inhibitors based on a Tractable Tricyclic Scaffold” (ACS Medicinal Chemistry Letters, 2025).
≈ marks a conversion by molar mass, not a printed value. Where “and” joins values, the source holds several entries; their conditions need not be identical. Identical values can stand only once. Like-named read-outs stand apart in the source and are kept apart here.

Key:
BRD4-BD1 [1] = target: T1, BRD4-BD1 (Homo sapiens, UniProt O60885); test: BRD4-BD1 FRET binding; settings: for pIC50 ± SD: n = 4
Description: (§1) Potency was determined against BRD4-BD1 using FRET binding, with this being treated as a surrogate of BRD4 activity given the homology between BD1 and BD2 across the BET proteins. , PFI is calculated from hydrophobicity plus aromatic ring count (chromatographic (chrom) logD7.4 + #Ar), with this metric being indicative of developability, or likelihood of progression to a drug candidate. PFI was used to assess the physicochemical profile of compounds, with a target of PFI < 7 as risks for several parameters, including solubility, are increased above this upper limit. Our objective was to develop a BET inhibitor with high potency and favorable physicochemical properties, as determined using PFI and LipE to guide compound optimization.

[2] = hydrophobicity (chrom LogD7.4) and property forecast index (PFI); format: physicochemical; settings: for PFI: PFI = chrom LogD7.4 + #Ar; for chromatographic logD: pH 7.4, chromatographic
Description: as §1
(§2) hydrophobicity (chrom LogD7.4), solubility (CAD), permeability (PAMPA)
(§3) and metabolic stability (CLint) have all been described previously.1

BRD4-BD1 [3] = target: T1, BRD4-BD1; test: lipophilic efficiency (LipE = pIC50 – cLogP); settings: predicted using Data Warrior
Excerpt: The final BET inhibitor discussed is BMS-986158 (4) (Figure ).

[4] = parallel artificial membrane permeability assay (PAMPA); format: in vitro ADME
Description: Additionally, the in vitro permeability of these compounds was determined by a parallel artificial membrane permeability assay (PAMPA). […] This would be protonated at physiological pH and decrease the overall affinity of the compound toward the hydrophobic membrane region.
as §2, §3

[5] = kinetic solubility by CAD; format: physicochemical; settings: n = 1
Description: (§4) For both enantiomers, kinetic solubility, permeability and metabolic stability data, the latter measured by in vitro microsomal intrinsic clearance (CLint) in rats and humans, was collected (Table ). , Docking of 44 and 45 into the BRD4-BD1 binding pocket was also carried out (Figures S3–4).
as §2, §3

[6] = in vitro metabolic stability in rat liver microsomes (CLint); format: in vitro ADME, rats; settings: n = 1
Description: as §4, §2, §3

[7] = in vitro metabolic stability in human liver microsomes (CLint); format: in vitro ADME, humans; settings: n = 1
Description: as §4, §2, §3

BRD2 = settings: binding to BRD2, reported; cited from earlier work
BRD3 = settings: binding to BRD3, reported; cited from earlier work
BRD4 [8] = settings: binding to BRD4, reported; cited from earlier work
[9] = tested on: panel of human lung cancer cell lines; settings: reported; cited from earlier work
BRD4 [10] = settings: BRD4, AlphaScreen; cited from earlier work
c-Myc expression = settings: advanced malignancies such as AML; cited from earlier work
tumor cell = settings: advanced malignancies such as AML; cited from earlier work
[11] = cited from earlier work
BRD4 [12] = settings: BRD4, fluorescence polarization; cited from earlier work
[13] = Phase I studies; cited from earlier work
BRD4 [14] = settings: BRD4, FRET binding; cited from earlier work
[15] = BRD4-BD1, FRET binding, n = 2, enantiomers
[16] = BRD4-BD1, values for 29, 30, 40

Compound | PFI [2] | LipE (BRD4-BD1 [3]) | Papp [4] [×10⁻⁶ cm/s] | pIC50 ± SD (BRD4-BD1 [1]; BRD4-BD1, FRET binding) | also measured
Cc1nnn(C)c1-c1ccc2c3nnc(NCCO)nc3n([C@@H](c3ccccn3)C3CCOCC3)c2c1 (single isomer, unassigned) [Compound 44] | 7.14 | 6.16 | 7.78 |  | pIC50 (BRD4-BD1 [1]; [15]): 8.35 ± 0.01; chromatographic logD [2]: 2.14; Solubility [5]: 134 µg/mL (≈ 268 µM); microsomal CLint [6]: < 10 µL/min/mg; microsomal CLint [7]: < 10 µL/min/mg
Cc1nnn(C)c1-c1ccc2c3nnc(NCCO)nc3n([C@H](c3ccccn3)C3CCOCC3)c2c1 (single isomer, unassigned) [Compound 45] | 7.14 | 5.83 | 9.36 |  | pIC50 (BRD4-BD1 [1]; [15]): 8.02 ± 0.08; Solubility [5]: 138 µg/mL (≈ 276 µM); microsomal CLint [6]: < 10 µL/min/mg; microsomal CLint [7]: < 10 µL/min/mg
Cc1nnn(C)c1-c1cnc2c3ccc(C(C)(C)O)cc3n([C@@H](c3ccccc3)C3CCOCC3)c2c1 (stereo in doubt) [Compound 4, BMS-986158, reference compound] | 9.08 | 3.51 | 49.8 |  | chromatographic logD [2]: 4.08; Solubility [5]: 109 µg/mL (≈ 220 µM); IC50 (BRD2): 0.8 nM; IC50 (BRD3): 1.4 nM; IC50 (BRD4 [8]): 1.1 nM; cytotoxicity [9]: potent cytotoxicity
Cc1sc2c(c1C)C(c1ccc(Cl)cc1)=N[C@@H](CC(=O)OC(C)(C)C)c1nnc(C)n1-2 [Compound 1, JQ1] |  |  |  |  | pIC50 (BRD4 [10]): 7.10; c-Myc expression (c-Myc expression): effectively downregulate; tumor cell proliferation (tumor cell): inhibit tumor cell proliferation; half-life [11]: 1 h; oral bioavailability [11]: low
COc1cc2c(cc1-c1c(C)noc1C)ncc1[nH]c(=O)n([C@H](C)c3ccccn3)c12 [Compound 2, I-BET151] |  |  |  |  | pIC50 (BRD4 [12]): 6.10; cardiotoxicity [13]: exhibited cardiotoxicity; c-Myc expression (c-Myc expression): effectively downregulate; tumor cell proliferation (tumor cell): inhibit tumor cell proliferation
CCS(=O)(=O)Nc1ccc(Oc2ccc(F)cc2F)c(-c2cn(C)c(=O)c3[nH]ccc23)c1 [Compound 3, N-(4-(2,4-Difluorophenoxy)-3-(6-methyl-7-oxo-6,7-dihydro-1H-pyrrolo[2,3-c]pyridin-4-yl)phenyl)ethanesulfonamide] |  |  |  |  | pIC50 (BRD4 [14]): 8.82; c-Myc expression (c-Myc expression): effectively downregulate; tumor cell proliferation (tumor cell): inhibit tumor cell proliferation
COCCNc1nnc2c(n1)[nH]c1cc(-c3c(C)noc3C)ccc12 [Compound 5a] | 6.83 | 4.39 |  | 6.22 ± 0.05 | 
COCCNc1nnc2c(n1)[nH]c1ccc(-c3c(C)noc3C)cc12 [Compound 5b] | 6.78 | 3.82 |  | 5.64 ± 0.05 | 
COCCNc1nnc2c3ccc(-c4c(C)noc4C)cc3n(Cc3ccccc3)c2n1 [Compound 12a] | 10.6 | 4.22 |  | 7.53 ± 0.12 | 
COCCNc1nnc2c3cc(-c4c(C)noc4C)ccc3n(Cc3ccccc3)c2n1 [Compound 12b] | 10.8 | 2.77 |  | 6.08 ± 0.34 | 
COCCNc1nnc2c3ccc(-c4c(C)noc4C)cc3n(Cc3ccc(F)cc3)c2n1 [Compound 13a] | 10.7 | 3.93 |  | 7.34 ± 0.04 | 
COCCNc1nnc2c3cc(-c4c(C)noc4C)ccc3n(Cc3ccc(F)cc3)c2n1 [Compound 13b] | 10.8 | 2.77 |  | 6.18 ± 0.05 | 
COCCNc1nnc2c3ccc(-c4c(C)noc4C)cc3n(C(c3ccccc3)C3CCOCC3)c2n1 (stereo not drawn) [Compound 22] | 10.6 | 3.69 |  | 8.27 ± 0.31 | 
COCCNc1nnc2c3cc(-c4c(C)noc4C)ccc3n(C(c3ccccc3)C3CCOCC3)c2n1 (stereo not drawn) [Compound 23] | 10.7 | 1.75 |  | 6.33 ± 0.03 | 
COCCNc1nnc2c3ccc(-c4c(C)noc4C)cc3n(C(c3ccccn3)C3CCOCC3)c2n1 (stereo not drawn) [Compound 24] | 9.74 | 4.38 |  | 8.01 ± 0.11 | 
COCCNc1nnc2c3ccc(-c4c(C)noc4C)cc3n(C(c3ccccc3)C3CCNCC3)c2n1 (stereo not drawn) [Compound 27] | 7.96 | 3.20 |  | 7.63 ± 0.05 | 
COCCNc1nnc2c3ccc(-c4c(C)noc4C)cc3n(C(c3ccccn3)C3CCNCC3)c2n1 (stereo not drawn) [Compound 28] | 7.37 | 4.25 |  | 7.74 ± 0.12 | 
Cc1noc(C)c1-c1ccc2c3nnc(NCCO)nc3n(C(c3ccccn3)C3CCNCC3)c2c1 (stereo not drawn) [Compound 29] | 6.74 and < 7 | 4.23 | < 0.3 |  | pIC50 (BRD4-BD1 [1]; [16]): 7.29 ± 0.06
COCCNc1nnc2c3ccc(-c4c(C)nnn4C)cc3n(C(c3ccccn3)C3CCNCC3)c2n1 (stereo not drawn) [Compound 30] | 6.46 and < 7 | 4.93 | < 0.3 |  | pIC50 (BRD4-BD1 [1]; [16]): 7.41 ± 0.03
Cc1nnn(C)c1-c1ccc2c3nnc(NCCO)nc3n(C(c3ccccn3)C3CCOCC3)c2c1 (stereo not drawn) [Compound 40] | 7.15 | 5.79 | 10.4 |  | pIC50 (BRD4-BD1 [1]; [16]): 7.98 ± 0.17
